Source: ChEMBL document CHEMBL1150567, “Three new phenolic compounds from a manipulated plant cell culture, Mirabilis jalapa” (J Nat Prod, 2001)
≈ marks a conversion by molar mass, not a printed value.

Assays:
Candida albicans [1] = assay: Antifungal activity against wild type Candida albicans SC5314 after 24 hrs by XTT assay; type: functional, organism-based; settings: SC5314, 24 h
Candida albicans [2] = assay: Antifungal activity against MDR knockout Candida albicans DSY1024 after 24 hrs by XTT assay; type: functional, organism-based; settings: DSY1024, 24 h

Row | Structure (SMILES) | IC50 (Candida albicans [1]) [µg/mL] | IC50 (Candida albicans [2]) [µg/mL]
1 | COc1ccc(-c2coc3cc(O)cc(O)c3c2=O)cc1 [BIOCHANIN] | > 100 | > 100
2 | O=c1c(-c2ccc(O)cc2)coc2cc(O)ccc12 [DAIDZEIN] | > 100 | > 100
3 | COc1cc2c(c(O)c1C)C(=O)[C@@]1(O)c3cccc(O)c3O[C@@H](OC)[C@@H]1O2 | > 200 | > 200
4 | OC(Cn1cncn1)(Cn1cncn1)c1ccc(F)cc1F [FLUCONAZOLE] | 0.18 (≈ 0.588 µM) | 6.7 (≈ 21.9 µM)
5 | COc1cc2oc3c(c(=O)c2c(O)c1C)-c1cccc(O)c1OC3O (stereo unspecified) [9-O-METHYL-4-HYDROXYBOERAVINONE B] | > 200 | 48 (≈ 140 µM)
6 | O=c1c(-c2ccc(O)cc2)coc2cc(O)cc(O)c12 [GENISTEIN] | > 100 | > 100
7 | COc1ccccc1-c1coc2cc(O)c(C)c(O)c2c1=O | 16 (≈ 53.6 µM) | 25 (≈ 83.8 µM)
8 | C[C@@H]1[C@H](O)[C@@H](C)/C=C/C=C/C=C/C=C/C=C/C=C/C=C/[C@H](O[C@@H]2O[C@H](C)[C@@H](O)[C@H](N)[C@@H]2O)C[C@@H]2O[C@](O)(C[C@@H](O)C[C@@H](O)[C@H](O)CC[C@@H](O)C[C@@H](O)CC(=O)O[C@H]1C)C[C@H](O)[C@H]2C(=O)O [AMPHOTERICIN B] | 0.15 (≈ 0.162 µM) | 0.19 (≈ 0.206 µM)
